Results: patent US20250109127A1, “METHODS OF USE OF PHENOXYPROPYLAMINE COMPOUNDS TO TREAT DEPRESSION” (Minerva Neurosciences, Inc., priority 2013, published 2025)
“And” between values parts separate entries of the source, which are not always exact repeats. Equal values may be shown once. Where a name gives a salt, the structure may show the parent alone.

Tested on: 5-HIAA release in the rat prefrontal cortex
Test: Microdialysis: 5-HIAA release in prefrontal cortex after I.P. administration
Type: in vivo
Conditions: for 5-HIAA release (% of basal levels) measured in dialysates, MEAN / 5-HIAA (% of respective basal) MEAN: n = 8; for 5-HIAA release (% of basal levels) measured in dialysates: individual animals, hydrochloride, 3 mg/kg; for 5-HIAA (% of respective basal) MEAN: SON-117 group 0.1 mg/kg I.P.
Protocol: The aim of the study was to evaluate, using microdialysis, the effects of an intraperitoneal (I.P.) administration in rats of three different doses of SON-117 on dopamine and its metabolites, serotonin and its metabolite (5-HIAA), and norepinephrine levels in prefrontal cortex.
Thirty-two adult male Wistar rats were used for the whole study (4 groups of eight animals planned for the study, Table 1).
Surgery was performed on rats weighing about 300 g at the beginning of the experiments. Rats were anaesthetized with Ketamine (50 mg/kg) & Xylazine (15 mg/kg) by intramuscular administration. The animals were placed in a stereotaxic apparatus in the flat-skull position at a constant setting of −3.3 mm between ear bars and the incisor bar. The animals were treated with a local anesthesic (xylocaine 1%, Astra Zeneca) and an analgesic (Temgesic, from Schering Plough, 0.05 mg/kg, s.c.). A rostrocaudal midline incision was made with a lancet to expose the dorsal skull surface. The “stereotaxic zero” was defined by the Bregma in accordance with Paxinos and Watson's atlas (1986). A hole was drilled in the skull with a drill and the meninges were pierced with a sterile needle to implant a CMA12 guide cannula which later received the dialysis probe.
Coordinates used for implanting guide cannula in prefrontal cortex from Bregma were anteroposterior 3.7 mm, mediolateral 0.8 mm, and dorsoventral −2 mm (top of the probe was at −5 mm). The guide cannula was fixed to the skull with two stainless steel screws (1.88 mm outside diameter) anchored. An application of dental cement was added. A plastic collar allowed each animal to be tethered to a Swivel assembly of the CMA 120 awake animal system. Following surgery, rats were kept in individual cages and allowed to recover for a minimum of 3-5 days before the experimentation. The rats were handled and put in plastic bowl for 10 min at least every day to habituate the animals to their new environment for the dialysis. An I.P. administration with saline was also performed every day.
Dialysis probes (CMA12/3 mm, membrane, 20 kD cut-off, Carnegie Medicine, Stockholm, Sweden), were carefully washed before inserting into the guide cannula. The wash was performed with the artificial cerebrospinal fluid (aCSF) medium (NaCl 147 mM, KCl 2.7 mM, CaCl2 1.2 mM, MgCl2 0.85 mM) at room temperature. The dialysis system was then equilibrated at 20° C. at a perfusion rate of 1 μl/min with a Carnegie pump (CMA100). All catheters (FEP tubing, internal volume of 1.2 μl/10 cm, and tubing adaptors) used for microdialysis were treated in the same conditions.
The probes duly prepared were inserted into the guide cannula and the CMA120 Swivel assembly secured to the animal using a plastic collar. Flow through the dialysis probe with aCSF was maintained at a rate of 1 μl/min during the whole experimentation. The first four fractions (corresponding to 2 hours) were discarded to avoid the effects of parenchymal disturbance and to ensure that an approximate steady-state level was reached. Fractions were then collected over a period of 8.5 h during which time the animals remained quiet. The dialysates were automatically collected with an autosampler (microfraction collector CMA 140, Carnegie Medicin) and stored at −80° C. until analysis. […] Perfusion was then maintained for 7 hours with aCSF. The dialysates (30 μl) were collected into 300 μl vials, transferred into dry ice and then kept frozen (−80° C.) until analysis. Frozen samples were shipped to a partner for analysis. At the end of the microdialysis study, a PBS with colored ink was perfused through the probe in order to visualize the dialyzed area.
Catecholamine assay: Concentrations of dopamine, DOPAC, HVA, 5-HIAA, 5-HT, and norepinephrin were determined for each sample by HPLC coupled with electrochemical detection.

[1] = SON-117 3 mg/kg IP, T1 h 30-T2 h
[2] = SON-117 3 mg/kg IP, T1 h-T1 h 30
[3] = SON-117 3 mg/kg IP, T2 h 30-T3 h
[4] = SON-117 3 mg/kg IP, T2 h-T2 h 30
[5] = SON-117 3 mg/kg IP, T3 h 30-T4 h
[6] = SON-117 3 mg/kg IP, T3 h-T3 h 30
[7] = SON-117 3 mg/kg IP, T4 h 30-T5 h
[8] = SON-117 3 mg/kg IP, T4 h-T4 h 30
[9] = SON-117 3 mg/kg IP, T5 h 30-T6 h
[10] = SON-117 3 mg/kg IP, T5 h-T5 h 30
[11] = SON-117 3 mg/kg IP, T6 h 30-T7 h
[12] = SON-117 3 mg/kg IP, T6 h-T6 h 30

## Cc1nnc(-c2cc3c(OC[C@@H](O)CN4CCC(c5ccc(Cl)c(Cl)c5)CC4)cccc3o2)o1 [SON-117, (S)-1-(4-(3,4-dichlorophenyl)piperidino)-3-(2-(5-methyl-1,3,4-oxadiazol-2-yl)benzo(b)furan-4-yloxy)-2-propanol hydrochloride]
SON-117 3 mg/kg IP, T0-T30 min
  5-HIAA release (% of basal levels) measured in dialysates, MEAN: 100.01 % of basal levels
SON-117 3 mg/kg IP, T30-T1 h
  5-HIAA release (% of basal levels) measured in dialysates, MEAN: 103.84 % of basal levels
  5-HIAA release (% of basal levels) measured in dialysates: 107.55 % of basal levels and 89.33 % of basal levels and 88.65 % of basal levels and 110.35 % of basal levels and 117.87 % of basal levels and 100.51 % of basal levels and 111.18 % of basal levels and 105.33 % of basal levels
[1]
  5-HIAA release (% of basal levels) measured in dialysates, MEAN: 88.78 % of basal levels
  5-HIAA release (% of basal levels) measured in dialysates: 94.24 % of basal levels and 92.41 % of basal levels and 78.82 % of basal levels and 101.67 % of basal levels and 75.13 % of basal levels and 85.33 % of basal levels and 91.45 % of basal levels and 91.21 % of basal levels
[2]
  5-HIAA release (% of basal levels) measured in dialysates, MEAN: 98.52 % of basal levels
  5-HIAA release (% of basal levels) measured in dialysates: 108.67 % of basal levels and 95.26 % of basal levels and 83.80 % of basal levels and 110.78 % of basal levels and 108.78 % of basal levels and 87.31 % of basal levels and 96.27 % of basal levels and 97.27 % of basal levels
[3]
  5-HIAA release (% of basal levels) measured in dialysates, MEAN: 84.99 % of basal levels
  5-HIAA release (% of basal levels) measured in dialysates: 110.25 % of basal levels and 75.66 % of basal levels and 71.07 % of basal levels and 93.25 % of basal levels and 73.18 % of basal levels and 83.94 % of basal levels and 86.24 % of basal levels and 86.32 % of basal levels
[4]
  5-HIAA release (% of basal levels) measured in dialysates, MEAN: 85.83 % of basal levels
  5-HIAA release (% of basal levels) measured in dialysates: 99.74 % of basal levels and 84.01 % of basal levels and 68.40 % of basal levels and 89.07 % of basal levels and 81.80 % of basal levels and 77.11 % of basal levels and 98.05 % of basal levels and 88.46 % of basal levels
[5]
  5-HIAA release (% of basal levels) measured in dialysates, MEAN: 82.25 % of basal levels
  5-HIAA release (% of basal levels) measured in dialysates: 103.09 % of basal levels and 75.36 % of basal levels and 71.57 % of basal levels and 91.17 % of basal levels and 72.73 % of basal levels and 78.31 % of basal levels and 82.53 % of basal levels and 83.23 % of basal levels
[6]
  5-HIAA release (% of basal levels) measured in dialysates, MEAN: 83.71 % of basal levels
  5-HIAA release (% of basal levels) measured in dialysates: 100.53 % of basal levels and 78.33 % of basal levels and 73.76 % of basal levels and 91.10 % of basal levels and 69.55 % of basal levels and 76.15 % of basal levels and 84.48 % of basal levels and 95.78 % of basal levels
[7]
  5-HIAA release (% of basal levels) measured in dialysates, MEAN: 75.41 % of basal levels
  5-HIAA release (% of basal levels) measured in dialysates: 90.13 % of basal levels and 63.71 % of basal levels and 68.51 % of basal levels and 75.52 % of basal levels and 72.02 % of basal levels and 83.31 % of basal levels and 83.67 % of basal levels and 66.44 % of basal levels
[8]
  5-HIAA release (% of basal levels) measured in dialysates, MEAN: 77.54 % of basal levels
  5-HIAA release (% of basal levels) measured in dialysates: 91.08 % of basal levels and 55.23 % of basal levels and 70.28 % of basal levels and 91.20 % of basal levels and 65.52 % of basal levels and 74.09 % of basal levels and 86.17 % of basal levels and 86.73 % of basal levels
[9]
  5-HIAA release (% of basal levels) measured in dialysates, MEAN: 71.99 % of basal levels
  5-HIAA release (% of basal levels) measured in dialysates: 82.54 % of basal levels and 68.32 % of basal levels and 64.58 % of basal levels and 71.77 % of basal levels and 60.86 % of basal levels and 67.49 % of basal levels and 79.74 % of basal levels and 80.63 % of basal levels
[10]
  5-HIAA release (% of basal levels) measured in dialysates, MEAN: 72.53 % of basal levels
  5-HIAA release (% of basal levels) measured in dialysates: 84.10 % of basal levels and 66.07 % of basal levels and 66.30 % of basal levels and 74.75 % of basal levels and 64.08 % of basal levels and 74.08 % of basal levels and 79.04 % of basal levels and 71.85 % of basal levels
[11]
  5-HIAA release (% of basal levels) measured in dialysates, MEAN: 73.41 % of basal levels
  5-HIAA release (% of basal levels) measured in dialysates: 83.14 % of basal levels and 67.51 % of basal levels and 58.65 % of basal levels and 82.71 % of basal levels and 65.19 % of basal levels
[12]
  5-HIAA release (% of basal levels) measured in dialysates, MEAN: 69.60 % of basal levels
  5-HIAA release (% of basal levels) measured in dialysates: 74.73 % of basal levels and 64.32 % of basal levels and 54.46 % of basal levels and 81.53 % of basal levels and 68.15 % of basal levels and 73.95 % of basal levels and 70.08 % of basal levels
SON-117 3 mg/kg IP, T-30 min-T0 (pre-administration)
  5-HIAA release (% of basal levels) measured in dialysates, MEAN: 102.90 % of basal levels
SON-117 3 mg/kg IP, T-1 h 30-T-1 h (pre-administration)
  5-HIAA release (% of basal levels) measured in dialysates, MEAN: 94.73 % of basal levels
SON-117 3 mg/kg IP, T-1 h-T-30 min (pre-administration)
  5-HIAA release (% of basal levels) measured in dialysates, MEAN: 102.37 % of basal levels
SON-117 3 mg/kg IP, from 2 h to 7 h
  5-HIAA concentration in prefrontal cortex, significant and stable decrease, max.: 72%
SON-117 3 mg/kg, at 3 h and 3.5 h
  levels of 5-HIAA compared to the citalopram treated group (significant): higher
T0-T30 min
  5-HIAA (% of respective basal) MEAN: 94.78 % of respective basal
T30-T1 h
  5-HIAA (% of respective basal) MEAN: 114.88 % of respective basal
T1 h 30-T2 h
  5-HIAA (% of respective basal) MEAN: 102.18 % of respective basal
T1 h-T1 h 30
  5-HIAA (% of respective basal) MEAN: 119.57 % of respective basal
T2 h 30-T3 h
  5-HIAA (% of respective basal) MEAN: 94.10 % of respective basal
T2 h-T2 h 30
  5-HIAA (% of respective basal) MEAN: 92.09 % of respective basal
T3 h 30-T4 h
  5-HIAA (% of respective basal) MEAN: 94.62 % of respective basal
T3 h-T3 h 30
  5-HIAA (% of respective basal) MEAN: 92.14 % of respective basal
T4 h 30-T5 h
  5-HIAA (% of respective basal) MEAN: 97.11 % of respective basal
T4 h-T4 h 30
  5-HIAA (% of respective basal) MEAN: 108.99 % of respective basal
T5 h 30-T6 h
  5-HIAA (% of respective basal) MEAN: 90.37 % of respective basal
T5 h-T5 h 30
  5-HIAA (% of respective basal) MEAN: 96.07 % of respective basal
T6 h 30-T7 h
  5-HIAA (% of respective basal) MEAN: 92.61 % of respective basal
T6 h-T6 h 30
  5-HIAA (% of respective basal) MEAN: 92.22 % of respective basal
T-30 min-T0 (before administration)
  5-HIAA (% of respective basal) MEAN: 101.47 % of respective basal
T-1 h 30-T-1 h (before administration)
  5-HIAA (% of respective basal) MEAN: 98.52 % of respective basal
T-1 h-T-30 min (before administration)
  5-HIAA (% of respective basal) MEAN: 100.01 % of respective basal
